Results on 14 compounds are retold here after ChEMBL document CHEMBL1126264, “Secondary metabolites by chemical screening. 17. Nigericinol derivatives: synthesis, biological activities, and modeling studies” (1992).

A short description of test [1]: (§1) Maximum tolerated dose (MTD) of the compound. It counts as functional. Particulars: herpes simplex virus.
The test system of the next test is Human alphaherpesvirus 2. Put plainly: Compound was tested for antimicrobial activity against HSV type 2. It counts as functional.
In test [2] the test system is Staphylococcus aureus. Nature of the test: Compound was tested for antimicrobial activity against Staphylococcus aureus SG511.
In test [3] the test system is Streptococcus pyogenes. Nature of the test: Compound was tested for antimicrobial activity against Streptococcus pyogenes 77A. It counts as functional, […] pyogenes.
For test [4], the system named is Staphylococcus aureus. Put plainly: Compound was tested for antimicrobial activity against Staphylococcus aureus 503.
The subject of the next test is Human alphaherpesvirus 1. Put plainly: Compound was tested for antimicrobial activity against HSV type 1. It counts as functional.
For test [5], the system named is Streptococcus pyogenes. Nature of the test: Compound was tested for antimicrobial activity against […] pyogenes 308 A. It counts as functional.
Test [6] deals with Staphylococcus aureus. Nature of the test: Compound was tested for antimicrobial activity against Staphylococcus aureus 285.
A further test has as its system herpes simplex virus. Described as §1. It counts as functional.

Converted amounts (≈) assume the structure as drawn.

`CO[C@@H]1C[C@@H](C[C@H]2CC[C@H](C)[C@H]([C@@H](C)COC(=O)C(C)C)O2)OC2(O[C@](C)([C@H]3CC[C@@](C)([C@@H]4O[C@@H]([C@H]5O[C@@](O)(CO)[C@H](C)C[C@@H]5C)C[C@@H]4C)O3)C[C@H]2C)[C@@H]1C` (stereo partly specified) registered an MTD in test [1] greater than 400 µg/mL. Further, the MIC is greater than 400 mg/L with Human alphaherpesvirus 2; greater than 100 mg/L in the test on Staphylococcus aureus [2]; greater than 100 mg/L with Streptococcus pyogenes [3]; greater than 100 mg/L with Staphylococcus aureus [4]; greater than 400 mg/L with Human alphaherpesvirus 1; greater than 100 mg/L against Streptococcus pyogenes [5]. Besides, in the test with Staphylococcus aureus [6], the MIC was greater than 100 mg/L.
In the case of `CO[C@@H]1C[C@@H](C[C@H]2CC[C@H](C)[C@H]([C@@H](C)C(=O)O)O2)OC2(O[C@](C)([C@H]3CC[C@@](C)([C@@H]4O[C@@H]([C@H]5OC(=O)[C@H](C)C[C@@H]5C)C[C@@H]4C)O3)C[C@H]2C)[C@@H]1C` (stereo partly specified), the MTD in test [1] was 40 µg/mL. The MIC with Human alphaherpesvirus 2 amounted to 13.3 mg/L (≈ 19.2 µM); with Staphylococcus aureus [2], 50 mg/L (≈ 72.2 µM); against Streptococcus pyogenes [3] it was 25 mg/L (≈ 36.1 µM); in the test on Staphylococcus aureus [4], 50 mg/L (≈ 72.2 µM); with Human alphaherpesvirus 1, 4.44 mg/L (≈ 6.41 µM); in the test with Streptococcus pyogenes [5], 25 mg/L (≈ 36.1 µM). The MIC against Staphylococcus aureus [6] is 50 mg/L (≈ 72.2 µM).
In turn, `CO[C@@H]1C[C@@H](C[C@H]2CC[C@H](C)[C@H]([C@@H](C)CO)O2)OC2(O[C@](C)([C@H]3CC[C@@](C)([C@@H]4O[C@@H]([C@H]5O[C@](COC(=O)C(C)C)(OC)[C@H](C)C[C@@H]5C)C[C@@H]4C)O3)C[C@H]2C)[C@@H]1C` (stereo partly specified) showed an MTD in test [1] greater than 400 µg/mL. For the same compound, the MIC against Human alphaherpesvirus 2 was greater than 400 mg/L; in the test on Staphylococcus aureus [2], greater than 100 mg/L; in the test on Streptococcus pyogenes [3] it was greater than 100 mg/L; with Staphylococcus aureus [4], greater than 100 mg/L; against Human alphaherpesvirus 1 it was greater than 400 mg/L; in the test with Streptococcus pyogenes [5] it was greater than 100 mg/L. The compound also returned an MIC against Staphylococcus aureus [6] greater than 100 mg/L.
For the compound `CO[C@@H]1C[C@@H](C[C@H]2CC[C@H](C)[C@H]([C@@H](C)CO)O2)OC2(O[C@](C)([C@H]3CC[C@@](C)([C@@H]4O[C@@H]([C@H]5O[C@@](O)(COC(=O)C(C)C)[C@H](C)C[C@@H]5C)C[C@@H]4C)O3)C[C@H]2C)[C@@H]1C` (stereo partly specified), the MIC in the test with Human alphaherpesvirus 2 is 0.49 mg/L (≈ 0.627 µM); against Staphylococcus aureus [2] it was 12.5 mg/L (≈ 16 µM); against Streptococcus pyogenes [3], 12.5 mg/L (≈ 16 µM); in the test with Staphylococcus aureus [4], 3.13 mg/L (≈ 4.01 µM); against Human alphaherpesvirus 1, 0.49 mg/L (≈ 0.627 µM); in the test on Streptococcus pyogenes [5] it was 3.13 mg/L (≈ 4.01 µM). The compound further had an MIC in the test on Staphylococcus aureus [6] of 6.25 mg/L (≈ 8 µM).
`CO[C@@H]1C[C@@H](C[C@H]2CC[C@H](C)[C@H]([C@@H](C)C(=O)O)O2)OC2(O[C@](C)([C@H]3CC[C@@](C)([C@@H]4O[C@@H]([C@H]5O[C@@](O)(COC(=O)C(C)C)[C@H](C)C[C@@H]5C)C[C@@H]4C)O3)C[C@H]2C)[C@@H]1C` (stereo partly specified) came in with an MTD in test [1] of 1.4 µg/mL. Besides, the MIC against Human alphaherpesvirus 2 was less than 0.02 mg/L; against Staphylococcus aureus [2] it was 0.39 mg/L (≈ 0.491 µM); against Streptococcus pyogenes [3], 0.049 mg/L (≈ 0.0616 µM); with Staphylococcus aureus [4] it was 0.19 mg/L (≈ 0.239 µM); against Human alphaherpesvirus 1, less than 0.02 mg/L; with Streptococcus pyogenes [5] it was 0.049 mg/L (≈ 0.0616 µM). For the same compound, the MIC against Staphylococcus aureus [6] came out at 0.39 mg/L (≈ 0.491 µM).
The compound `CO[C@@H]1C[C@@H](C[C@H]2CC[C@H](C)[C@H]([C@@H](C)C(=O)O)O2)OC2(O[C@](C)([C@H]3CC[C@@](C)([C@@H]4O[C@@H]([C@H]5O[C@](CO)(OC)[C@H](C)C[C@@H]5C)C[C@@H]4C)O3)C[C@H]2C)[C@@H]1C` (stereo partly specified) yielded an MTD in test [1] of 4.4 µg/mL. Moreover, the MIC in the test with Human alphaherpesvirus 2 was 0.5 mg/L (≈ 0.677 µM); with Staphylococcus aureus [2] it was 1.56 mg/L (≈ 2.11 µM); in the test on Streptococcus pyogenes [3], 0.39 mg/L (≈ 0.528 µM); with Staphylococcus aureus [4], 1.56 mg/L (≈ 2.11 µM); against Human alphaherpesvirus 1, 0.02 mg/L (≈ 0.0271 µM); against Streptococcus pyogenes [5], 0.39 mg/L (≈ 0.528 µM). The same compound gave an MIC in the test on Staphylococcus aureus [6] of 1.56 mg/L (≈ 2.11 µM).
With `CO[C@@H]1C[C@@H](C[C@H]2CC[C@H](C)[C@H]([C@@H](C)CO)O2)OC2(O[C@](C)([C@H]3CC[C@@](C)([C@@H]4O[C@@H]([C@H]5O[C@](COCOCC[Si](C)(C)C)(OCOCC[Si](C)(C)C)[C@H](C)C[C@@H]5C)C[C@@H]4C)O3)C[C@H]2C)[C@@H]1C` (stereo partly specified), the MTD with herpes simplex virus is greater than 400 µg/mL. The MIC was greater than 400 mg/L in the test with Human alphaherpesvirus 2; greater than 100 mg/L in the test on Staphylococcus aureus [2]; 50 mg/L (≈ 51.5 µM) with Streptococcus pyogenes [3]; greater than 100 mg/L in the test with Staphylococcus aureus [4]; greater than 400 mg/L with Human alphaherpesvirus 1; 50 mg/L (≈ 51.5 µM) against Streptococcus pyogenes [5]. The MIC against Staphylococcus aureus [6] was greater than 100 mg/L.
With `CO[C@@H]1C[C@@H](C[C@H]2CC[C@H](C)[C@H]([C@@H](C)CCl)O2)OC2(O[C@](C)([C@H]3CC[C@@](C)([C@@H]4O[C@@H]([C@H]5O[C@@](O)(CCl)[C@H](C)C[C@@H]5C)C[C@@H]4C)O3)C[C@H]2C)[C@@H]1C` (stereo partly specified), the MTD in the test with herpes simplex virus was 14.8 µg/mL. The MIC is less than 0.02 mg/L in the test with Human alphaherpesvirus 2; 0.39 mg/L (≈ 0.521 µM) against Staphylococcus aureus [2]; 0.78 mg/L (≈ 1.04 µM) in the test with Streptococcus pyogenes [3]; 0.098 mg/L (≈ 0.131 µM) against Staphylococcus aureus [4]; 0.02 mg/L (≈ 0.0267 µM) against Human alphaherpesvirus 1; 0.098 mg/L (≈ 0.131 µM) with Streptococcus pyogenes [5]. For the same compound, the MIC in the test with Staphylococcus aureus [6] was 0.39 mg/L (≈ 0.521 µM).
In test [1], `CO[C@@H]1C[C@@H](C[C@H]2CC[C@H](C)[C@H]([C@@H](C)CO)O2)OC2(O[C@](C)([C@H]3CC[C@@](C)([C@@H]4O[C@@H]([C@@H](O)[C@@H](C)C[C@@H](C)CO)C[C@@H]4C)O3)C[C@H]2C)[C@@H]1C` (stereo partly specified) showed an MTD of 40 µg/mL. In addition, the MIC amounted to 133 mg/L (≈ 195 µM) against Human alphaherpesvirus 2; 6.25 mg/L (≈ 9.15 µM) in the test with Staphylococcus aureus [2]; 50 mg/L (≈ 73.2 µM) in the test with Streptococcus pyogenes [3]; 1.56 mg/L (≈ 2.28 µM) in the test on Staphylococcus aureus [4]; 40 mg/L (≈ 58.6 µM) in the test on Human alphaherpesvirus 1; 1.56 mg/L (≈ 2.28 µM) against Streptococcus pyogenes [5]. The MIC with Staphylococcus aureus [6] was found to be 3.13 mg/L (≈ 4.58 µM).
In the test with herpes simplex virus, `CO[C@@H]1C[C@@H](C[C@H]2CC[C@H](C)[C@H]([C@@H](C)C(=O)OCOCC[Si](C)(C)C)O2)OC2(O[C@](C)([C@H]3CC[C@@](C)([C@@H]4O[C@@H]([C@H]5O[C@](COCOCC[Si](C)(C)C)(OCOCC[Si](C)(C)C)[C@H](C)C[C@@H]5C)C[C@@H]4C)O3)C[C@H]2C)[C@@H]1C` (stereo partly specified) registered an MTD greater than 40 µg/mL. The MIC was 13.3 mg/L (≈ 11.9 µM) with Human alphaherpesvirus 2; greater than 100 mg/L against Staphylococcus aureus [2]; greater than 100 mg/L with Streptococcus pyogenes [3]; greater than 100 mg/L against Staphylococcus aureus [4]; 4.44 mg/L (≈ 3.98 µM) against Human alphaherpesvirus 1; greater than 100 mg/L against Streptococcus pyogenes [5]. Also, in the test with Staphylococcus aureus [6], the MIC was greater than 100 mg/L.
Take `CO[C@@H]1C[C@@H](C[C@H]2CC[C@H](C)[C@H]([C@@H](C)CO)O2)OC2(O[C@](C)([C@H]3CC[C@@](C)([C@@H]4O[C@@H]([C@H]5O[C@](CO)(OC)[C@H](C)C[C@@H]5C)C[C@@H]4C)O3)C[C@H]2C)[C@@H]1C` (stereo partly specified): the MTD in test [1] came to 14.5 µg/mL. Besides, the MIC in the test on Human alphaherpesvirus 2 is 0.5 mg/L (≈ 0.69 µM); against Staphylococcus aureus [2], greater than 100 mg/L; in the test with Streptococcus pyogenes [3], greater than 100 mg/L; in the test with Staphylococcus aureus [4] it was greater than 100 mg/L; against Human alphaherpesvirus 1 it was 4.94 mg/L (≈ 6.81 µM); in the test on Streptococcus pyogenes [5] it was greater than 100 mg/L. In the test on Staphylococcus aureus [6], this compound registered an MIC greater than 100 mg/L.
`CO[C@@H]1C[C@@H](C[C@H]2CC[C@H](C)[C@H]([C@@H](C)C(=O)O)O2)OC2(O[C@](C)([C@H]3CC[C@@](C)([C@@H]4O[C@@H]([C@H]5O[C@](COC(=O)C(C)C)(OC)[C@H](C)C[C@@H]5C)C[C@@H]4C)O3)C[C@H]2C)[C@@H]1C` (stereo partly specified) gave an MTD in test [1] greater than 400 µg/mL. Moreover, the MIC in the test on Human alphaherpesvirus 2 was greater than 400 mg/L; in the test on Staphylococcus aureus [2] it was greater than 100 mg/L; in the test on Streptococcus pyogenes [3], greater than 100 mg/L; in the test on Staphylococcus aureus [4], 25 mg/L (≈ 30.9 µM); with Human alphaherpesvirus 1, greater than 400 mg/L; in the test on Streptococcus pyogenes [5] it was 25 mg/L (≈ 30.9 µM). Also, the MIC against Staphylococcus aureus [6] came out at 100 mg/L (≈ 124 µM).
As for `CO[C@@H]1C[C@@H](C[C@H]2CC[C@H](C)[C@H]([C@@H](C)CO)O2)OC2(O[C@](C)([C@H]3CC[C@@](C)([C@@H]4O[C@@H]([C@H]5O[C@@](O)(CO)[C@H](C)C[C@@H]5C)C[C@@H]4C)O3)C[C@H]2C)[C@@H]1C` (stereo partly specified), the MTD in test [1] amounted to 14.8 µg/mL. Also, the MIC with Human alphaherpesvirus 2 is less than 0.18 mg/L; with Staphylococcus aureus [2] it was greater than 100 mg/L; against Streptococcus pyogenes [3], 1.56 mg/L (≈ 2.19 µM); in the test with Staphylococcus aureus [4], 3.13 mg/L (≈ 4.4 µM); with Human alphaherpesvirus 1, less than 0.18 mg/L; with Streptococcus pyogenes [5], 1.56 mg/L (≈ 2.19 µM). The compound further showed an MIC against Staphylococcus aureus [6] of 6.25 mg/L (≈ 8.79 µM).
The compound `CO[C@@H]1C[C@@H](C[C@H]2CC[C@H](C)[C@H]([C@@H](C)C(=O)O)O2)OC2(O[C@](C)([C@H]3CC[C@@](C)([C@@H]4O[C@@H]([C@H]5O[C@@](O)(CO)[C@H](C)C[C@@H]5C)C[C@@H]4C)O3)C[C@H]2C)[C@@H]1C` (stereo partly specified) had an MTD in test [1] of 1.4 µg/mL. Also, the MIC against Human alphaherpesvirus 2 is 0.05 mg/L (≈ 0.069 µM); against Staphylococcus aureus [2] it was 0.098 mg/L (≈ 0.135 µM); in the test with Streptococcus pyogenes [3], 0.013 mg/L (≈ 0.0179 µM); with Staphylococcus aureus [4], 0.098 mg/L (≈ 0.135 µM); with Human alphaherpesvirus 1, less than 0.02 mg/L; against Streptococcus pyogenes [5], 0.025 mg/L (≈ 0.0345 µM). In the test on Staphylococcus aureus [6], this compound registered an MIC of 0.098 mg/L (≈ 0.135 µM).
